Test results taken from US20050112573A1, “Method of detecting toxic substance” (priority 2001, published 2005).

System: yeast genes (level of expressed mRNA)
Assay: DNA chip analysis of expressed mRNA of yeast genes after 2 h culture with a toxic chemical substance
Assay type: cell-based, Saccharomyces cerevisiae S288C
In short: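 S. cerevisiae S288C grown at 25° C in YPD; toxicant added at log phase at growth-inhibitory, non-lethal levels for 2 h, untreated cells as control. Poly(A) mRNA reverse-transcribed with Cy3/Cy5-dUTP, hybridized to whole-genome chip at 65° C >12 h; value is fluorescence ratio versus untreated.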

Structure (SMILES): CCCCCCCCCCCCOS(=O)(=O)[O-].[Na+] [(18), sodium lauryl sulfate]
- The level of expressed mRNA in the presence of chemical substance/absence: YGR293C (gene YGR293C): 0.9
- The level of expressed mRNA in the presence of chemical substance/absence: YHL006C (gene YHL006C): 1.0
- The level of expressed mRNA in the presence of chemical substance/absence: YHL021C (gene YHL021C): 3.6
- The level of expressed mRNA in the presence of chemical substance/absence: YHL037C (gene YHL037C): 0.9
- level of expressed mRNA in the presence of chemical substance/in its absence (gene YHR037W): 1.4
- The level of expressed mRNA in the presence of chemical substance/absence: YHR083W (gene YHR083W): 1.0
- level of expressed mRNA in the presence of chemical substance/in its absence (gene YHR092C): 1.3
- The level of expressed mRNA in the presence of chemical substance/absence: YHR095W (gene YHR095W): 0.7
- The level of expressed mRNA in the presence of chemical substance/absence: YHR105W (gene YHR105W): 0.9
- The level of expressed mRNA in the presence of chemical substance/absence: YHR134W (gene YHR134W): 1.3
- level of expressed mRNA in the presence of chemical substance/in its absence (gene YHR137W): 1.3
- The level of expressed mRNA in the presence of chemical substance/absence: YHR180W (gene YHR180W): 1.0
- The level of expressed mRNA in the presence of chemical substance/absence: YHR181W (gene YHR181W): 0.9
- level of expressed mRNA in the presence of chemical substance/in its absence (gene YHR190W): 1.8
- level of expressed mRNA in the presence of chemical substance/in its absence (gene YIL033C): 1.2
- The level of expressed mRNA in the presence of chemical substance/absence: YIL108W (gene YIL108W): 0.7
- The level of expressed mRNA in the presence of chemical substance/absence: YIL127C (gene YIL127C): 0.6
- level of expressed mRNA in the presence of chemical substance/in its absence (gene YIL154C): 1.0
- The level of expressed mRNA in the presence of chemical substance/absence: YIL165C (gene YIL165C): 1.3
- level of expressed mRNA in the presence of chemical substance/in its absence (gene YIL167W): 0.8
- level of expressed mRNA in the presence of chemical substance/in its absence (gene YIR035C): 0.9
- The level of expressed mRNA in the presence of chemical substance/absence: YJL017W (gene YJL017W): 1.0
- The level of expressed mRNA in the presence of chemical substance/absence: YJL032W (gene YJL032W): 1.1
- The level of expressed mRNA in the presence of chemical substance/absence: YJL037W (gene YJL037W): 0.9
- The level of expressed mRNA in the presence of chemical substance/absence: YJL049W (gene YJL049W): 1.1
- level of expressed mRNA in the presence of chemical substance/in its absence (gene YJL088W): 0.9
- The level of expressed mRNA in the presence of chemical substance/absence: YJL097W (gene YJL097W): 1.1
- level of expressed mRNA in the presence of chemical substance/in its absence (gene YJL132W): 1.5
- level of expressed mRNA in the presence of chemical substance/in its absence (gene YJL196C): 1.9
- The level of expressed mRNA in the presence of chemical substance/absence: YJR030C (gene YJR030C): 0.9
- The level of expressed mRNA in the presence of chemical substance/absence: YJR044C (gene YJR044C): 1.6
- level of expressed mRNA in the presence of chemical substance/in its absence (gene YJR142W): 1.4
- level of expressed mRNA in the presence of chemical substance/in its absence (gene YJR148W): 1.7
- level of expressed mRNA in the presence of chemical substance/in its absence (gene YJR159W): 2.3
- The level of expressed mRNA in the presence of chemical substance/absence: YKL051W (gene YKL051W): 1.4
- The level of expressed mRNA in the presence of chemical substance/absence: YKL059C (gene YKL059C): 0.9
- level of expressed mRNA in the presence of chemical substance/in its absence (gene YKL067W): 3.2
- The level of expressed mRNA in the presence of chemical substance/absence: YKL090W (gene YKL090W): 1.0
- The level of expressed mRNA in the presence of chemical substance/absence: YKL094W (gene YKL094W): 1.9
- The level of expressed mRNA in the presence of chemical substance/absence: YKL097C (gene YKL097C): 0.5
- The level of expressed mRNA in the presence of chemical substance/absence: YKL100C (gene YKL100C): 1.5
- level of expressed mRNA in the presence of chemical substance/in its absence (gene YKR039W): 1.1
- The level of expressed mRNA in the presence of chemical substance/absence: YKR040C (gene YKR040C): 0.8
- The level of expressed mRNA in the presence of chemical substance/absence: YLR097C (gene YLR097C): 1.7
- level of expressed mRNA in the presence of chemical substance/in its absence (gene YLR142W): 3.2
- level of expressed mRNA in the presence of chemical substance/in its absence (gene YLR180W): 0.7
- The level of expressed mRNA in the presence of chemical substance/absence: YLR226W (gene YLR226W): 1.0
- level of expressed mRNA in the presence of chemical substance/in its absence (gene YLR273C): 1.0
- level of expressed mRNA in the presence of chemical substance/in its absence (gene YLR300W): 0.5
- level of expressed mRNA in the presence of chemical substance/in its absence (gene YLR307W): 1.0
- The level of expressed mRNA in the presence of chemical substance/absence: YLR338W (gene YLR338W): 0.6
- The level of expressed mRNA in the presence of chemical substance/absence: YLR339C (gene YLR339C): 0.6
- The level of expressed mRNA in the presence of chemical substance/absence: YLR392C (gene YLR392C): 1.6
- The level of expressed mRNA in the presence of chemical substance/absence: YLR415C (gene YLR415C): 1.0
- The level of expressed mRNA in the presence of chemical substance/absence: YLR427W (gene YLR427W): 1.0
- The level of expressed mRNA in the presence of chemical substance/absence: YML013W (gene YML013W): 0.8
- The level of expressed mRNA in the presence of chemical substance/absence: YML029W (gene YML029W): 1.0
- The level of expressed mRNA in the presence of chemical substance/absence: YML041C (gene YML041C): 1.3
- The level of expressed mRNA in the presence of chemical substance/absence: YML079W (gene YML079W): 1.4
- level of expressed mRNA in the presence of chemical substance/in its absence (gene YML110C): 1.6
- The level of expressed mRNA in the presence of chemical substance/absence: YML118W (gene YML118W): 1.5
- The level of expressed mRNA in the presence of chemical substance/absence: YMR068W (gene YMR068W): 1.1
- The level of expressed mRNA in the presence of chemical substance/absence: YMR071C (gene YMR071C): 1.9
- level of expressed mRNA in the presence of chemical substance/in its absence (gene YMR105C): 2.6
- The level of expressed mRNA in the presence of chemical substance/absence: YMR114C (gene YMR114C): 1.3
- The level of expressed mRNA in the presence of chemical substance/absence: YMR115W (gene YMR115W): 1.2
- The level of expressed mRNA in the presence of chemical substance/absence: YMR160W (gene YMR160W): 1.3
- level of expressed mRNA in the presence of chemical substance/in its absence (gene YMR189W): 0.8
- The level of expressed mRNA in the presence of chemical substance/absence: YMR258C (gene YMR258C): 1.3
- level of expressed mRNA in the presence of chemical substance/in its absence (gene YMR271C): 2.2
- level of expressed mRNA in the presence of chemical substance/in its absence (gene YMR272C): 1.4
- level of expressed mRNA in the presence of chemical substance/in its absence (gene YMR296C): 0.7
- level of expressed mRNA in the presence of chemical substance/in its absence (gene YNL012W): 1.5
- The level of expressed mRNA in the presence of chemical substance/absence: YNL026W (gene YNL026W): 1.4
- level of expressed mRNA in the presence of chemical substance/in its absence (gene YNL037C): 1.3
- level of expressed mRNA in the presence of chemical substance/in its absence (gene YNL045W): 1.1
- The level of expressed mRNA in the presence of chemical substance/absence: YNL058C (gene YNL058C): 1.0
- The level of expressed mRNA in the presence of chemical substance/absence: YNL063W (gene YNL063W): 1.0
- level of expressed mRNA in the presence of chemical substance/in its absence (gene YNL104C): 0.9
- level of expressed mRNA in the presence of chemical substance/in its absence (gene YNL106C): 0.9
- level of expressed mRNA in the presence of chemical substance/in its absence (gene YNL130C): 1.2
- level of expressed mRNA in the presence of chemical substance/in its absence (gene YNL169C): 1.3
- The level of expressed mRNA in the presence of chemical substance/absence: YNL176C (gene YNL176C): 0.8
- The level of expressed mRNA in the presence of chemical substance/absence: YNL181W (gene YNL181W): 1.3
- The level of expressed mRNA in the presence of chemical substance/absence: YNL191W (gene YNL191W): 0.6
- The level of expressed mRNA in the presence of chemical substance/absence: YNL194C (gene YNL194C): 2.4
- The level of expressed mRNA in the presence of chemical substance/absence: YNL200C (gene YNL200C): 0.9
- The level of expressed mRNA in the presence of chemical substance/absence: YNL212W (gene YNL212W): 1.2
- level of expressed mRNA in the presence of chemical substance/in its absence (gene YNL231C): 4.0
- The level of expressed mRNA in the presence of chemical substance/absence: YNL253W (gene YNL253W): 1.2
- The level of expressed mRNA in the presence of chemical substance/absence: YNL265C (gene YNL265C): 1.8
- The level of expressed mRNA in the presence of chemical substance/absence: YNL276C (gene YNL276C): 0.8
- level of expressed mRNA in the presence of chemical substance/in its absence (gene YNL322C): 1.0
- level of expressed mRNA in the presence of chemical substance/in its absence (gene YNR002C): 2.1
- level of expressed mRNA in the presence of chemical substance/in its absence (gene YNR019W): 2.0
- level of expressed mRNA in the presence of chemical substance/in its absence (gene YNR033W): 1.1
- The level of expressed mRNA in the presence of chemical substance/absence: YNR051C (gene YNR051C): 0.8
- level of expressed mRNA in the presence of chemical substance/in its absence (gene YNR059W): 2.2
- The level of expressed mRNA in the presence of chemical substance/absence: YOL026C (gene YOL026C): 1.4
- The level of expressed mRNA in the presence of chemical substance/absence: YOL030W (gene YOL030W): 1.0
- level of expressed mRNA in the presence of chemical substance/in its absence (gene YOL058W): 0.8
- level of expressed mRNA in the presence of chemical substance/in its absence (gene YOL126C): 2.4
- level of expressed mRNA in the presence of chemical substance/in its absence (gene YOL143C): 1.4
- level of expressed mRNA in the presence of chemical substance/in its absence (gene YOL153C): 1.7
- level of expressed mRNA in the presence of chemical substance/in its absence (gene YOL157C): 1.3
- The level of expressed mRNA in the presence of chemical substance/absence: YOR022C (gene YOR022C): 1.1
- The level of expressed mRNA in the presence of chemical substance/absence: YOR087W (gene YOR087W): 1.1
- The level of expressed mRNA in the presence of chemical substance/absence: YOR088W (gene YOR088W): 0.7
- level of expressed mRNA in the presence of chemical substance/in its absence (gene YOR099W): 2.3
- level of expressed mRNA in the presence of chemical substance/in its absence (gene YOR130C): 1.1
- level of expressed mRNA in the presence of chemical substance/in its absence (gene YOR136W): 1.3
- The level of expressed mRNA in the presence of chemical substance/absence: YOR138C (gene YOR138C): 1.1
- The level of expressed mRNA in the presence of chemical substance/absence: YOR155C (gene YOR155C): 0.9
- The level of expressed mRNA in the presence of chemical substance/absence: YOR253W (gene YOR253W): 0.9
